# From patent US9902759B2, “BH3 peptides and methods of use thereof” (Dana-Farber Cancer Institute, Inc., priority 2002, dated 2018)
# Ends that are not written are not given here.
# T1: BAK (Mus musculus, UniProt O08734)
# T1 construct: capable of inducing an allosteric change in mitochondrial-resident BAK or BAX; from tissue
# T1 sequence (O08734 1-209): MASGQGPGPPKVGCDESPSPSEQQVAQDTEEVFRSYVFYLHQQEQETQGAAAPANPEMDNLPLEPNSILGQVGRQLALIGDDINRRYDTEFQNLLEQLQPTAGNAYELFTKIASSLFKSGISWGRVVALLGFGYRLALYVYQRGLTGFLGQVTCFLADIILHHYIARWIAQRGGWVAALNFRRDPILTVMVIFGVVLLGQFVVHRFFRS
# Key:
# [1] = Circular dichroism, α-helical content; assay type: physicochemical; settings: CD, 50 mM potassium phosphate pH 7, 20° C.
# Procedure: Circular dichroism (CD) spectra were obtained on a Jasco J-710 spectropolarimeter at 20° C. using the following standard measurement parameters: wavelength, 190-260 nm; step resolution, 0.5 nm; speed, 20 nm/sec; accumulations, 10; response, 1 sec; band width, 1 nm; path length, 0.1 cm. Stock solutions of peptide were dissolved in deionized water and concentrations determined by amino acid analysis. Samples were then diluted in 50 mM potassium phosphate pH 7 to a calculated final concentration of 50 μM. The CD spectrum of each sample was measured in triplicate and a background spectrum of diluent alone was subtracted. For comparison, the subtracted CD spectra were normalized to 35 μM based on repeat peptide concentration determination by amino acid analysis of the diluted peptide solutions. The α-helical content of each peptide was calculated by dividing the mean residue ellipticity [q]222obs by the reported [q]222obs for a model helical decapeptide (Yang et al., 1986).
# GST-BCL-2 [2] = target: T2, GST-BCL-2 (Homo sapiens, UniProt P10415); test: Fluorescence polarization binding of fluoresceinated BH3 peptides to GST-BCL-2; settings: for Kd: 25 nM fluoresceinated peptide, GST-BCL-2 titration, 37° C., read-out: Kd (nM), BCL-2 Binding
# T2 construct: a GST-BCL-2 fusion protein lacking the C-terminal transmembrane domain was utilized; made in house; host or cells: E. coli BL21 DE3
# From the text: (§1) To determine Kd for peptide binding to BCL-2, a GST-BCL-2 fusion protein lacking the C-terminal transmembrane domain was utilized. Peptides were synthesized with a fluorescein amino-terminus using an AHA linker. […] An increase in fluorescence polarization measured on a Perkin-Elmer LS 50B luminescence spectrophotometer was quantitated to calculate binding. A non-linear fit to a sigmoidal dose-response curve utilized the program Origin 6.0 to determine Kd. […] Data were fitted to a sigmoidal curve as above, and IC50 determined.
# (§2) GST-BCL-2δC21 fusion proteins were induced in BL21 DE3 by 0.1 mM IPTG. The bacterial pellets were resuspended in lysis buffer (1 mg/ml lysozyme/1% Triton X-100/0.1 mg/ml PMSF/2 μg/ml aprotinin/2 μg/ml leupeptine/1 μg/ml pepstatin A in PBS) and sonicated. After centrifugation at 20,000×g for 20 min, the supernatant was applied to glutathione-agarose beads (Sigma). The beads were washed with PBS and treated with 50 mM glutathione/50 mM TrisHCl, pH8.0 to elute protein. Eluate was dialyzed against binding buffer and concentrated using Amicon centrifugal concentrating devices.
# [3] = system: BCL-2 overexpressing mitochondria; test: Cytochrome c release from BCL-2 overexpressing FL5.12 mitochondria; assay type: biochemical; settings: for capacity to overcome BCL-2 protection: with subliminal myrBID (30 nM); for cytochrome c release from mitochondria with overexpressed BCL-2, agent alone: 10 μM BIDBH3, 1 μM BIMBH3, 30 nM myrBID
# Procedure: (§3) Mouse liver mitochondria were isolated from age-matched wt or Bak −/− mice. Livers were diced, subjected to Dounce rotary Teflon pestle disruption, then homogenized using a Kinematica Polytron homognizer. Following suspension in isolation buffer (250 mM sucrose, 10 mM Tris-HCl pH 7.4, 0.1 mM EGTA), mitochondria were isolated by differential centrifugation steps, followed by two washes in isolation buffer. Mitochondria from FL5.12 cells were isolated by cell disruption followed by differential centrifugation and washing as above. Cell disruption was performed either by a Kinematika Polytron homogenizer or by a combination of Dounce homogenization followed by 6-10 expulsions through a 27 gauge needle.
# (§4) Mitochondria at a protein concentration of 0.5 mg/ml were treated at room temperature in experimental buffer (125 mM KCl, 10 mM Tris-MOPS pH 7.4, 5 mM glutamate, 2.5 mM malate, 1 mM KPO4, 10 µM EGTA-Tris pH 7.4). Percent release was quantitated using a colorimetric ELISA (MCTC0, R&D Systems). In all experiments, treatments with DMSO were used as a control for solvent activity.
# GST-BCL-2 [4] = target: T2, GST-BCL-2; test: BH3 peptide displacement from GST-BCL-2 by fluorescence polarization; assay type: binding; settings: for IC50: read-out: IC50 (nM), BID Displacement
# From the text: as §1, §2
# BAK = target: T1, BAK; test: BAK oligomerization, BMH cross-linking and immunoblot; assay type: biochemical; settings: 100 μM peptide, cross-linker BMH
# Procedure: (§5) 1,6-Bismaleimidohexane was obtained from Pierce (#22330). A 10 mM stock solution in DMSO was added to treated mitochondrial suspensions at a 1:11 dilution. Cross-linking took place for 30 minutes at room temperature, followed by centrifugation to pellet mitochondria. Pellets were dissolved in NuPAGE loading buffer (Invitrogen).
# (§6) Antibodies used for immunoblot analysis included anti-cytochrome c (75981A, Pharmingen), anti-BAK (Upstate Biotechnology), and anti-BAX (N-20, Santa Cruz). Antibody detection was accomplished using enhanced chemiluminescence (Western Lightning, Perkin-Elmer).
# mitochondria = test: Cytochrome c release from isolated mitochondria (ELISA); assay type: biochemical, mouse; settings: for cytochrome c release by peptide or protein alone: BIDBH3 at 10 μM, other concentrations not stated
# Procedure: as §3, §4
# BAX = target: T3, BAX (Mus musculus, UniProt Q07813); test: BAX oligomerization in mitochondria from FL5.12 cells, BMH cross-linking; assay type: biochemical; settings: 100 μM peptide
# T3 construct: mitochondria isolated from cultured FL5.12 cells, which contain both BAX and BAK; endogenous in cells; host or cells: mitochondria isolated from FL5.12 cells
# Procedure: as §5, §6
# T2 sequence (P10415 1-218 limits assumed): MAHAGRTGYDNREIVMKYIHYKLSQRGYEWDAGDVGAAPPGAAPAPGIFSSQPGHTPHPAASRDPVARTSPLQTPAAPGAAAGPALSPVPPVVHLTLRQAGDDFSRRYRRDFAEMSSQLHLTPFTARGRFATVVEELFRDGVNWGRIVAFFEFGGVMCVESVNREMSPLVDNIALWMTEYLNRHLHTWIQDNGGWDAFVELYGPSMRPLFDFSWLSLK
# T3 sequence (Q07813 whole entry): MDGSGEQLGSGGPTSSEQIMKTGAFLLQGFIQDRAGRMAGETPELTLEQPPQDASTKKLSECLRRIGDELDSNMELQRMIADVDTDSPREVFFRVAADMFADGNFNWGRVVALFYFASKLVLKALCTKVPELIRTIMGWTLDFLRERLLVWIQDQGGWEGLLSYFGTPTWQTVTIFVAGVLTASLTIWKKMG
molecule,measurement,setting,value
CC[C@H](C)[C@H](NC(=O)[C@H](CS)NC(=O)[C@H](C)NC(=O)[C@H](CC(C)C)NC(=O)[C@H](CCCNC(=N)N)NC(=O)[C@H](CC(C)C)NC(=O)[C@H](C)NC(=O)[C@H](CC(C)C)NC(=O)[C@H](C)NC(=O)[C@H](CC(=O)O)NC(=O)[C@H](CO)NC(=O)CNC(=O)[C@H](CCC(=O)O)NC(=O)[C@@H](N)CCSC)C(=O)NCC(=O)N[C@@H](CC(=O)O)C(=O)N[C@@H](CCC(=O)O)C(=O)N[C@@H](CCSC)C(=O)N[C@@H](CC(=O)O)C(=O)N[C@H](C(=O)O)C(C)C [BIKBH3],% Helicity (222 nm),[1],8.5%
same,Kd,GST-BCL-2 [2],485 nM
same,restoration of cytochrome c release by myrBID,[3]; 100 μM BIKBH3,restore near-total cytochrome c release
same,capacity to overcome BCL-2 protection,[3],"significant, but lesser, potency"
same,displacement of BIDBH3 from BCL-2,GST-BCL-2 [4],demonstrate the ability to displace BIDBH3
same,IC50,GST-BCL-2 [4],4920 nM
CC[C@H](C)[C@H](NC(=O)[C@H](CCCNC(=N)N)NC(=O)[C@H](CCCNC(=N)N)NC(=O)[C@H](CC(C)C)NC(=O)[C@H](CCC(N)=O)NC(=O)[C@H](C)NC(=O)[C@H](CS)NC(=O)[C@H](CCC(=O)O)NC(=O)[C@H](CC(=O)O)NC(=O)[C@H](CCCCN)NC(=O)[C@H](CC(C)C)NC(=O)[C@H](CC(=O)O)NC(=O)[C@H](C)NC(=O)[C@@H]1CCCN1)C(=O)NCC(=O)N[C@@H](CC(=O)O)C(=O)N[C@@H](CCCCN)C(=O)N[C@H](C(=O)N[C@@H](CC(N)=O)C(=O)N[C@@H](CC(C)C)C(=O)O)C(C)C [NOXABBH3],% Helicity (222 nm),[1],11.6%
same,binding to BCL-2,GST-BCL-2 [2],did not bind detectably
same,displacement of BIDBH3 from BCL-2,GST-BCL-2 [4],did not bind detectably to BCL-2 or displace BIDBH3 from BCL-2
CC[C@H](C)[C@H](NC(=O)[C@H](CC(N)=O)NC(=O)[C@H](CCCNC(=N)N)NC(=O)[C@@H](NC(=O)[C@@H](NC(=O)[C@H](CC(=O)O)NC(=O)[C@@H](N)CCC(=O)O)[C@@H](C)CC)[C@@H](C)CC)C(=O)N[C@@H](C)C(=O)N[C@@H](CCCNC(=N)N)C(=O)N[C@@H](Cc1c[nH]cn1)C(=O)N[C@@H](CC(C)C)C(=O)N[C@@H](C)C(=O)N[C@@H](CCC(N)=O)C(=O)N[C@H](C(=O)NCC(=O)N[C@@H](CC(=O)O)C(=O)N[C@@H](CO)C(=O)N[C@@H](CCSC)C(=O)N[C@@H](CC(=O)O)C(=O)N[C@@H](CCCNC(=N)N)C(=O)O)C(C)C [BIDBH3],% Helicity (222 nm),[1],19.5%
same,BAK oligomerization,BAK,induces BAK oligomerization
same,concentration required for near total release of cytochrome c,mitochondria,10 µM
same,"cytochrome c release, Bak +/+ vs. −/− mitochondria","mitochondria; 100 μM peptide, liver mitochondria",BAK is required for the release of cytochrome c
same,cytochrome c release by peptide or protein alone,mitochondria,capable of initiating cytochrome c release
same,"cytochrome c release from mitochondria with overexpressed BCL-2, agent alone",[3],failing to release cytochrome c
same,displacement of BADBH3 from BCL-2,GST-BCL-2 [4],does not effectively displace BADBH3 from BCL-2
same,oligomerization of BAX,BAX,could also induce oligomerization of BAX
CC[C@H](C)[C@H](NC(=O)[C@H](CCCCN)NC(=O)[C@H](CCCNC(=N)N)NC(=O)[C@H](CC(C)C)NC(=O)[C@H](CCC(N)=O)NC(=O)[C@H](C)NC(=O)[C@H](C)NC(=O)[C@H](Cc1ccccc1)NC(=O)[C@H](CCC(=O)O)NC(=O)[C@@H]1CCCN1C(=O)[C@@H]1CCCN1C(=O)[C@H](CC(C)C)NC(=O)[C@H](CCC(=O)O)NC(=O)[C@H](C)N)C(=O)NCC(=O)N[C@@H](CC(=O)O)C(=O)N[C@@H](CCCCN)C(=O)N[C@H](C(=O)N[C@@H](Cc1ccc(O)cc1)C(=O)N[C@@H](CS)C(=O)O)C(C)C [NOXAABH3],% Helicity (222 nm),[1],5.1%
same,binding to BCL-2,GST-BCL-2 [2],did not bind detectably
same,displacement of BIDBH3 from BCL-2,GST-BCL-2 [4],did not bind detectably to BCL-2 or displace BIDBH3 from BCL-2
VIPMAAVKQALREAGDEFEL [BCLXBH3],Kd,GST-BCL-2 [2],> 1000 nM
same,IC50,GST-BCL-2 [4],> 30000 nM
CSCC[C@H](NC(=O)[C@H](CCCNC(=N)N)NC(=O)[C@H](CCCNC(=N)N)NC(=O)[C@H](CC(C)C)NC(=O)[C@H](CCC(=O)O)NC(=O)[C@H](CCCNC(=N)N)NC(=O)CNC(=O)[C@H](Cc1ccc(O)cc1)NC(=O)[C@H](CCCNC(=N)N)NC(=O)[C@H](CCC(N)=O)NC(=O)[C@H](C)NC(=O)[C@H](C)NC(=O)[C@H](Cc1c[nH]c2ccccc12)NC(=O)[C@H](CC(C)C)NC(=O)[C@@H](N)CC(N)=O)C(=O)N[C@@H](CO)C(=O)N[C@@H](CC(=O)O)C(=O)N[C@@H](CCC(=O)O)C(=O)N[C@@H](Cc1ccccc1)C(=O)N[C@H](C(=O)N[C@@H](CC(=O)O)C(=O)N[C@@H](CO)C(=O)N[C@@H](Cc1ccccc1)C(=O)N[C@@H](CCCCN)C(=O)N[C@@H](CCCCN)C(=O)O)C(C)C [BADBH3],% Helicity (222 nm),[1],23.9%
same,BAK oligomerization,BAK,unable to induce BAK oligomerization
same,cytochrome c release by peptide or protein alone,mitochondria,inactive in this assay
same,cytochrome c release by peptide alone,mitochondria; even at 100 μM,cannot activate BAK or release cytochrome c
same,affinity for BCL-2 relative to BIDBH3 peptide,GST-BCL-2 [2],approximately 5 fold
same,restoration of cytochrome c release to BIDBH3 and BIMBH3,[3]; 100 μM BADBH3,to levels observed for wt mitochondria
same,restoration of sensitivity to myrBID,[3]; 200 μM BADBH3,markedly restores their sensitivity to even 1 nM myrBID
same,lowest concentration with measurable activity in inhibiting BCL-2 and enabling cytochrome c release by myrBID,[3]; FL5.12-BCL-2 mitochondria,1 µM
same,capacity to overcome BCL-2 protection,[3],most prominently demonstrates the capacity to overcome BCL-2 protection
same,displacement of BIDBH3 from BCL-2,GST-BCL-2 [4],can efficiently displace pre-bound BIDBH3 peptide from BCL-2
same,oligomerization of BAX,BAX,not
"myrBID: recombinant p7/myrp15, myristoylated BID complex (protein, UniProt P55957 1-195, looked up, myristoylated; p7/p15 cleaved complex) BH3-interacting domain death …: MDCEVNNGSSLRDECITNLLVFGFLQSCSDNSFRRELDALGHELPVLAPQWEGYDELQTDGNRSSHSRLGRIEADSESQEDIIRNIARHLAQVGDSMDRSIPPGLVNGLALQLRNTSRSEEDRNRDLATALEQLLQAYPRDMEKEKTMLVLALLLAKKVASHTPSLLRDVFHTTVNFINQNLRTYVRSLARNGMD",concentration required for near total release of cytochrome c,mitochondria,0.01 µM
same,cytochrome c release by peptide or protein alone,mitochondria,capable of initiating cytochrome c release
same,"cytochrome c release from mitochondria with overexpressed BCL-2, agent alone",[3],failing to release cytochrome c
